Literature values in patent US12691071B2 (SHANGHAI YONSUN BIOTECHNOLOGY CO., LTD., priority 2021, dated 2026).

COC[C@@H](NC(C)=O)C(=O)NCc1ccccc1 [Lacosamide, (2R)-2-acetamido-N-benzyl-3-methoxypropanamide]
solubility in acetonitrile or ethanol (acetonitrile or ethanol): slightly soluble | solubility in methanol or acetone (methanol or acetone): easily soluble
